Experimental data reported in the supplement of paper PMC11451515.

Assays:
Details in all cases: 48 h
P12-Ichikawa [1] = experiment: AUC of viability dose-response curve (% viability x log10 dose units); higher = less sensitive
How it was run: (§1)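 Leukemia cells adapted to each medium were seeded at 500 or 1000 cells/well in 1536-well plates and dosed with library compounds in DMSO at 11 threefold doses from 47 μM to 0.79 nM for 48 h at 37°C. CellTiter-Glo One luminescence was normalised per plate to DMSO and cell-free wells, then fitted with a four-parameter log-logistic model over log10 doses. Area under the curve was taken from this fit by the trapezoidal rule, with curves above full viability scaled and curves failing quality control removed.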

NOMO1 [2] = experiment: as above
How it was run: as §1

SEM cells [3] = experiment: as above
How it was run: as §1

P12-Ichikawa [4] = experiment: cell viability relative to DMSO control; higher = less cytotoxic
How it was run: (§2)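 In 1536-well plates, 5 μl of leukemia cells were seeded per well: 500 cells/well for NOMO1 or SEM and 1000 cells/well for P12-Ichikawa. Each line had first been adapted for at least four passages in each medium. Library compounds in DMSO were pin-dosed at 11 threefold concentrations between 47 μM and 0.79 nM, and CellTiter-Glo One luminescence was read after 48 h at 37°C. Viability is a per-plate percentage relative to DMSO wells, with cell-free wells as background.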

NOMO1 [5] = experiment: as above
How it was run: as §2

SEM cells [6] = experiment: as above
How it was run: as §2

CC(N)C12CC3CC(CC(C3)C1)C2 (centres undefined)
AUC of viability dose-response curve
Details | NOMO1 [2] | P12-Ichikawa [1] | SEM cells [3]
HPLM + 10% dialyzed FBS | 453 | 449 | 468
RPMI 5 mM glucose + 10% FBS | 437 | 456 | 447
RPMI 5 mM glucose + 10% dialyzed FBS | 443 | 455 | 477

cell viability [%]
Details | NOMO1 [5] | P12-Ichikawa [4] | SEM cells [6]
HPLM + 10% dialyzed FBS, 0.000781 µM | 99.4 | 105 | 89.3
HPLM + 10% dialyzed FBS, 0.00234 µM | 120 | 108 | 104
HPLM + 10% dialyzed FBS, 0.00702 µM | 116 | 111 | 96.8
HPLM + 10% dialyzed FBS, 0.0211 µM | 113 | 117 | 110
HPLM + 10% dialyzed FBS, 0.0632 µM | 117 | 124 | 98.4
HPLM + 10% dialyzed FBS, 0.19 µM | 104 | 109 | 107
HPLM + 10% dialyzed FBS, 0.569 µM | 126 | 111 | 118
HPLM + 10% dialyzed FBS, 1.71 µM | 109 | 114 | 108
HPLM + 10% dialyzed FBS, 5.12 µM | 104 | 110 | 85.3
HPLM + 10% dialyzed FBS, 15.4 µM | 85.1 | 99.1 | 96.1
HPLM + 10% dialyzed FBS, 46.1 µM | 80.2 | 8.72 | 108
RPMI 5 mM glucose + 10% FBS, 0.000781 µM | 104 | 103 | 102
RPMI 5 mM glucose + 10% FBS, 0.00234 µM | 118 | 113 | 100
RPMI 5 mM glucose + 10% FBS, 0.00702 µM | 122 | 101 | 120
RPMI 5 mM glucose + 10% FBS, 0.0211 µM | 111 | – | 122
RPMI 5 mM glucose + 10% FBS, 0.0632 µM | 108 | 123 | 113
RPMI 5 mM glucose + 10% FBS, 0.19 µM | 116 | 118 | 117
RPMI 5 mM glucose + 10% FBS, 0.569 µM | 126 | 112 | 118
RPMI 5 mM glucose + 10% FBS, 1.71 µM | 112 | 112 | 123
RPMI 5 mM glucose + 10% FBS, 5.12 µM | 112 | 111 | 94.5
RPMI 5 mM glucose + 10% FBS, 15.4 µM | 53.4 | 117 | 125
RPMI 5 mM glucose + 10% FBS, 46.1 µM | 49.2 | 13.2 | 131
RPMI 5 mM glucose + 10% dialyzed FBS, 0.000781 µM | – | 105 | 106
RPMI 5 mM glucose + 10% dialyzed FBS, 0.00234 µM | – | 106 | 91.5
RPMI 5 mM glucose + 10% dialyzed FBS, 0.00702 µM | – | 115 | 126
RPMI 5 mM glucose + 10% dialyzed FBS, 0.0211 µM | – | 101 | 98.2
RPMI 5 mM glucose + 10% dialyzed FBS, 0.0632 µM | – | 112 | 115
RPMI 5 mM glucose + 10% dialyzed FBS, 0.19 µM | – | 110 | 115
RPMI 5 mM glucose + 10% dialyzed FBS, 0.569 µM | – | 108 | 117
RPMI 5 mM glucose + 10% dialyzed FBS, 1.71 µM | – | 125 | 118
RPMI 5 mM glucose + 10% dialyzed FBS, 5.12 µM | – | 108 | 88.1
RPMI 5 mM glucose + 10% dialyzed FBS, 15.4 µM | – | 105 | 107
RPMI 5 mM glucose + 10% dialyzed FBS, 46.1 µM | – | 18.8 | 110

O=C(O)C1=NC(C(=O)O)CC(/C=C/N2c3cc(O)c(OC4OC(CO)C(O)C(O)C4O)cc3CC2C(=O)O)=C1 (centres undefined)
AUC of viability dose-response curve
Details | NOMO1 [2] | P12-Ichikawa [1] | SEM cells [3]
HPLM + 10% dialyzed FBS | 462 | 463 | 467
RPMI 5 mM glucose + 10% FBS | 465 | 450 | 466
RPMI 5 mM glucose + 10% dialyzed FBS | 421 | 462 | 461

cell viability [%]
Details | NOMO1 [5] | P12-Ichikawa [4] | SEM cells [6]
HPLM + 10% dialyzed FBS, 0.000781 µM | 111 | 104 | 109
HPLM + 10% dialyzed FBS, 0.00234 µM | 111 | 107 | 106
HPLM + 10% dialyzed FBS, 0.00702 µM | 115 | 104 | 110
HPLM + 10% dialyzed FBS, 0.0211 µM | 103 | 96.9 | 109
HPLM + 10% dialyzed FBS, 0.0632 µM | 117 | 98.5 | 101
HPLM + 10% dialyzed FBS, 0.19 µM | 106 | 104 | 113
HPLM + 10% dialyzed FBS, 0.569 µM | 99.1 | 106 | 112
HPLM + 10% dialyzed FBS, 1.71 µM | 109 | 102 | 104
HPLM + 10% dialyzed FBS, 5.12 µM | 98.7 | 96.8 | 103
HPLM + 10% dialyzed FBS, 15.4 µM | 107 | 98 | 95.9
HPLM + 10% dialyzed FBS, 46.1 µM | 109 | 98.4 | 103
RPMI 5 mM glucose + 10% FBS, 0.000781 µM | 86.4 | 97.2 | 102
RPMI 5 mM glucose + 10% FBS, 0.00234 µM | 86.7 | 110 | 107
RPMI 5 mM glucose + 10% FBS, 0.00702 µM | 94.2 | 106 | 101
RPMI 5 mM glucose + 10% FBS, 0.0211 µM | 99.4 | 99.1 | 113
RPMI 5 mM glucose + 10% FBS, 0.0632 µM | 119 | 95.8 | 101
RPMI 5 mM glucose + 10% FBS, 0.19 µM | 108 | 89.9 | 111
RPMI 5 mM glucose + 10% FBS, 0.569 µM | 98.4 | 90.8 | 115
RPMI 5 mM glucose + 10% FBS, 1.71 µM | 93.5 | 106 | 102
RPMI 5 mM glucose + 10% FBS, 5.12 µM | 94 | 96.5 | 102
RPMI 5 mM glucose + 10% FBS, 15.4 µM | 90.6 | 96.8 | 101
RPMI 5 mM glucose + 10% FBS, 46.1 µM | 104 | 97.4 | 97.2
RPMI 5 mM glucose + 10% dialyzed FBS, 0.000781 µM | 104 | 101 | 112
RPMI 5 mM glucose + 10% dialyzed FBS, 0.00234 µM | 101 | 99.2 | 113
RPMI 5 mM glucose + 10% dialyzed FBS, 0.00702 µM | 101 | 106 | 102
RPMI 5 mM glucose + 10% dialyzed FBS, 0.0211 µM | 113 | 102 | 118
RPMI 5 mM glucose + 10% dialyzed FBS, 0.0632 µM | 104 | 106 | 108
RPMI 5 mM glucose + 10% dialyzed FBS, 0.19 µM | 101 | 104 | 112
RPMI 5 mM glucose + 10% dialyzed FBS, 0.569 µM | 94.2 | 93.2 | 105
RPMI 5 mM glucose + 10% dialyzed FBS, 1.71 µM | 98.2 | 99.5 | 96.4
RPMI 5 mM glucose + 10% dialyzed FBS, 5.12 µM | 92.4 | 100 | 111
RPMI 5 mM glucose + 10% dialyzed FBS, 15.4 µM | 104 | 91.9 | 105
RPMI 5 mM glucose + 10% dialyzed FBS, 46.1 µM | 117 | 90.9 | 96.9
